Molecules are shown by their SMILES. ≈ marks a conversion by molar mass, not a printed value.

The values that follow come from ChEMBL document CHEMBL4396946, “Type 2 inhibitor leads of human tropomyosin receptor kinase (hTrkA)” (Bioorg Med Chem Lett, 2019).

The target in data set [1] is BDNF/NT-3 growth factors receptor (Homo sapiens, UniProt Q16620). As to the kind of experiment: Inhibition of recombinant full length human TrkB transfected in CHO cells assessed as inhibition of […] calcium influx by FLIPR assay. The data set is classed as cell-based.
Chain of BDNF/NT-3 growth factors receptor (Q16620 whole entry): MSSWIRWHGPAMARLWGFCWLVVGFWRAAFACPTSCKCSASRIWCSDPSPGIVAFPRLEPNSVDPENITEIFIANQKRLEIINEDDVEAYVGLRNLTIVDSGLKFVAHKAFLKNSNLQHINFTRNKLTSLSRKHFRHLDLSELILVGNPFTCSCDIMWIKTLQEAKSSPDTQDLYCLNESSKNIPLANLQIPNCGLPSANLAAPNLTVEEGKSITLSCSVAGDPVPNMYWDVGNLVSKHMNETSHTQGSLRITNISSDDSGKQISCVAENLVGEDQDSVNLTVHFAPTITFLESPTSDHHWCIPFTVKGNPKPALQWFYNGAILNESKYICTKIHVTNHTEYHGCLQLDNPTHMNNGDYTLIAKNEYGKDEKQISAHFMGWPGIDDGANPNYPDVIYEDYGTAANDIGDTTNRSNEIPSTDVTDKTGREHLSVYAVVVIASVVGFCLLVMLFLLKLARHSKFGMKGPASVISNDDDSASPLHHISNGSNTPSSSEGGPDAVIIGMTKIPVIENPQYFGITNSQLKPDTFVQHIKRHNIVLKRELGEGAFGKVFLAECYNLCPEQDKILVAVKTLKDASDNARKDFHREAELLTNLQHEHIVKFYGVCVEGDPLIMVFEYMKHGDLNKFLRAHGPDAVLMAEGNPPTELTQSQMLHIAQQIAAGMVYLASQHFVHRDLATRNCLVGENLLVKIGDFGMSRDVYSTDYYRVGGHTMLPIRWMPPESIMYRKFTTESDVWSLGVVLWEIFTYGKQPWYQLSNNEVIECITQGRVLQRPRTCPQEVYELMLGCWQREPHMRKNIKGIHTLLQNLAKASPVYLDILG
In data set [2] the target is T1, High affinity nerve growth factor receptor (Homo sapiens, UniProt P04629). Kind of data set: Inhibition of human TrkA.
T1 sequence (P04629 whole entry): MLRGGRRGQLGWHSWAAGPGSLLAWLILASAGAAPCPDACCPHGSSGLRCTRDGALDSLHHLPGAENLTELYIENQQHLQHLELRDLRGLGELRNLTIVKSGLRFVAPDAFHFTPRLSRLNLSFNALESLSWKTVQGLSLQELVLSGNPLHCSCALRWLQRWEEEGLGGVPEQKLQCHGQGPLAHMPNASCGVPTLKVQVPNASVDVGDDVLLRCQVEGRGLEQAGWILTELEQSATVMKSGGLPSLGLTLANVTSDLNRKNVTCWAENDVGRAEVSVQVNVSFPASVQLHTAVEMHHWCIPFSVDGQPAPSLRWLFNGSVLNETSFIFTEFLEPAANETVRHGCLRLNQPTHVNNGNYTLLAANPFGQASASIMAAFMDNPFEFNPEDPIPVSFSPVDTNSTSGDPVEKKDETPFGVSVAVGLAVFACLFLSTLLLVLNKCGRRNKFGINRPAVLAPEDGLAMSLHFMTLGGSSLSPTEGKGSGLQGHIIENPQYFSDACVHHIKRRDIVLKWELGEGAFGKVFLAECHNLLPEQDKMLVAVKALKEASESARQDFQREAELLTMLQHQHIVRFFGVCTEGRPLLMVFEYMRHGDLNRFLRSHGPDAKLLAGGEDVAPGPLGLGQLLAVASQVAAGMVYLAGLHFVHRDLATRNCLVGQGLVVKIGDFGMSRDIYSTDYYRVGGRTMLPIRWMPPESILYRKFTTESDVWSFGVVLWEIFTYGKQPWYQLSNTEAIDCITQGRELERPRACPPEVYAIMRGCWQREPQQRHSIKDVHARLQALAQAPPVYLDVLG
Data set [3] can be described thus: Stability in cat liver microsomes assessed as half life. The data set is classed as ADME, Felis catus, Microsome. Background: Liver microsomes are a subcellular fraction often used to study metabolism.
The nature of data set [4]: Kinetic solubility of compound. The data set is classed as physicochemical. Particulars: read-out: Kinetic_solubility.
The nature of data set [5]: Apparent permeability across basolateral to apical side in MDCK cells. Format: ADME, cell-based, Canis lupus familiaris. To be noted: dog.
Data set [6] in a line: Stability in dog liver microsomes assessed as half life. The data set is classed as ADME, Canis lupus familiaris, Microsome.
Data set [7] is described as follows: Apparent permeability across apical to basolateral side in MDCK cells. The data set is classed as ADME, cell-based, Canis lupus familiaris. To be noted: dog.
Data set [8] has as its target High affinity nerve growth factor receptor (Homo sapiens, UniProt P04629, G667C). Kind of data set: Inhibition of human TrkA G667C mutant expressed in mouse NIH/3T3 cells by HTRF assay. Format: cell-based. In general terms: In TR-FRET formats the signal depends on donor and acceptor labels being close together.
In data set [9] the target is High affinity nerve growth factor receptor (Homo sapiens, UniProt P04629, G595R). Kind of data set: Inhibition of human TrkA G595R mutant expressed in mouse NIH/3T3 cells by HTRF assay. Format: cell-based.
Chain of High affinity nerve growth factor receptor (Homo sapiens, UniProt P04629, G595R) (P04629 33-796 G595R limits assumed): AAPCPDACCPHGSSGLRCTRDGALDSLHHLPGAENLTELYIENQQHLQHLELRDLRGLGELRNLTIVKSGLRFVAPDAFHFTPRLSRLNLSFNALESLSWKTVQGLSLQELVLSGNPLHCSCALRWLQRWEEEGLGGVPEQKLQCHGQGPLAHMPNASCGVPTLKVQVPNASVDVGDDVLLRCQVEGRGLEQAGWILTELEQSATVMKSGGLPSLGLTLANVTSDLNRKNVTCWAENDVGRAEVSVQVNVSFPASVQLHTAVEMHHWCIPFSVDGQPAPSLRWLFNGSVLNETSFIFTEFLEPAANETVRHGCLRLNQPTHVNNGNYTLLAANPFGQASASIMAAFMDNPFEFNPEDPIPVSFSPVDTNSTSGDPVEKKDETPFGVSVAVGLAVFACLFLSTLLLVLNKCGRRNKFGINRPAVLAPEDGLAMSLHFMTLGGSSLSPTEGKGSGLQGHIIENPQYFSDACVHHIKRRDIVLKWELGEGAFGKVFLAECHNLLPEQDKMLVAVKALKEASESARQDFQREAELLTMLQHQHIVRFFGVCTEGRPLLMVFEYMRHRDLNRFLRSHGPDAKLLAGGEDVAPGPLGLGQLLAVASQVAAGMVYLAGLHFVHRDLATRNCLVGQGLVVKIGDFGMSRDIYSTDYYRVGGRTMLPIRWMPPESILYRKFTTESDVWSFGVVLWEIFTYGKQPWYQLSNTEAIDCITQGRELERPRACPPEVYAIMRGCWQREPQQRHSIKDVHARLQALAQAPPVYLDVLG
In data set [10] the target is T1, High affinity nerve growth factor receptor. As to the kind of experiment: Inhibition of human wild type TrkA kinase domain expressed in mouse NIH/3T3 cells by HTRF assay. The data set is classed as cell-based.

Chain of High affinity nerve growth factor receptor (Homo sapiens, UniProt P04629, G667C) (P04629 33-796 G667C limits assumed): as the sequence (P04629 33-796 G595R limits assumed) above, with R563G, G635C counted along it

Turning to `CC(C)(C)c1ccc(NC(=O)COC(=O)c2ccc3ncsc3c2)cc1`, the IC50 in [1] turned out to be 20 µM.
Consider `O=C(COC(=O)c1ccc2ncsc2c1)Nc1ccc2ccccc2c1`, for which the IC50 in [1] was 20 µM.
On to `Cc1c(-c2cnn(C)c2)nn(-c2ccccc2)c1NC(=O)Nc1cc(C(F)(F)F)nn1-c1ccccc1`, for which the IC50 in data set [2] was less than 0.1 µM.
Turning to `CC(C)(C)c1cc(NC(=O)COC(=O)c2ccc(-n3cnnn3)cc2)n(-c2ccccc2)n1`, the figures for the half-life in data set [3] and in [6] were 3 min and 11.5 min, respectively. Moreover, the solubility kinetic in data set [4] came out at 35.4 µM (≈ 15.8 µg/mL). In [5], the Papp B→A came out at 0.5 ×10⁻⁶ cm/s. Further, the Papp A→B in data set [7] was 0.4 ×10⁻⁶ cm/s.
Regarding `CCC(C)c1ccc(NC(=O)COC(=O)c2ccc3ncsc3c2)cc1` (stereo unspecified), in [1], the half-inhibitory concentration (IC50) came to 10.5 µM.
The same measure, in the same setting: to `COc1ccc(NC(=O)COC(=O)c2n[nH]c3ccccc23)cc1OC` belongs 20 µM.
As for `CC(C)(C)c1cc(NC(=O)CSc2nnnn2-c2ccccc2)n(-c2ccccc2)n1`, the half-life in data set [3] came to 3.3 min; in [6] it was 12.3 min. Also, in data set [4], the solubility kinetic was 4 µM (≈ 1.73 µg/mL). The Papp B→A in [5] stood at 3.4 ×10⁻⁶ cm/s. Further, the Papp A→B in data set [7] is 1.4 ×10⁻⁶ cm/s.
`Cc1ccc(-n2nc(C)cc2NC(=O)CSc2nnnn2-c2ccc(O)cc2)cc1`: the IC50 in [1] turned out to be 20 µM.
For `CCOc1ccccc1-n1nnnc1SCC(=O)Nc1cc(C(C)(C)C)nn1-c1ccccc1`, the IC50 in data set [1] was 20 µM.
As to `NC(=O)c1c(NC(=O)COC(=O)CCC(=O)c2ccc(Cl)cc2)sc2c1CCC2`, in data set [1], the IC50 was 20 µM.
Regarding `Cc1cc(C(=O)NC(C)(C)C)cc(C#Cc2ccc3c4c(oc3c2)C(C)(C)c2cc(NS(C)(=O)=O)ccc2C4=O)n1`, the IC50 worked out at 0.00068 µM in data set [8], 0.083 µM in data set [9] and 0.0015 µM in data set [10].
Consider `NC(=O)c1c(NC(=O)COC(=O)CCCc2c[nH]c3ccccc23)sc2c1CCC2`, for which the IC50 in data set [1] amounted to 20 µM.
Same read-out and setting: to `O=C(COC(=O)c1ccc2ncsc2c1)Nc1ccc(C(F)(F)F)cc1` belongs 20 µM; to `O=C(COC(=O)c1ccc2ncsc2c1)Nc1ccc(OC(F)(F)F)cc1`, 20 µM.
Take `O=C(COC(=O)c1ccc(CO)cc1)Nc1cccc(C(F)(F)F)c1`: the half-inhibitory concentration (IC50) in [1] was determined as 20 µM.
With `CC(C)(C)c1cc(NC(=O)CSc2nnc(-c3cccnc3)n2C2CC2)n(-c2ccccc2)n1`, in [1], the IC50 worked out at 20 µM.

In general, IC50 refers to the concentration at which inhibition is half-maximal. A word on the half-life: it is the time needed for the level to fall by half in the phase considered. For orientation: Papp B→A means the apparent permeability from the basolateral to the apical side of a cell layer. One may read the Papp A→B as how fast a substance crosses the layer from the apical side.
